# US20200030355A1, “COMBINATION THERAPY FOR TREATING CANCER” (Epizyme, Inc., priority 2014, published 2020)
# Counter-ions that a name gives are not always drawn.
# Tested on: MOLM-13 cells
# Assay: EPZ-5676 300 nM 7-day pre-treatment, then second compound 72 hours, ATPLite, IC50 shift (Example 6)
# Format: cell-based, human
# Conditions: 300 nM EPZ-5676 or DMSO 7-day pre-treatment, then 2nd compound 72 hours, Synergy = IC50 of 2nd compound decreased by 2-fold or more vs DMSO control
# Experimental: Cells were then equilibrated in incubators for 24 hours before treatment with a second compound. Treated assay plates were incubated with a second compound for 72 hours. After this time, plates were developed for endpoint analysis using ATPLite to measure ATP content, which is used as an indicator of cell viability.
# “N/D” means that IC50 of the second compound could not be determined for both conditions.
row,SMILES,MOLM-13 (summary of combination study: EPZ-5676 + 2nd compound)
1,Clc1ccc(C2(c3ccc(-c4cn[nH]c4)cc3)CCNCC2)cc1 [AT7867],Synergy (considered synergistic if the IC50 value of the second compound decreased by 2-fold or more when EPZ-5676 was added as compared to the DMSO control)
2,CC1=C(/C=C/C(C)=C\C=C\C(C)=C\C(=O)O)C(C)(C)CCC1 [Alitretinoin],Synergy (considered synergistic if the IC50 value of the second compound decreased by 2-fold or more when EPZ-5676 was added as compared to the DMSO control)
3,CC(=O)OC[C@H]1O[C@@H]([S-])[C@H](OC(C)=O)[C@@H](OC(C)=O)[C@@H]1OC(C)=O.CCP(CC)CC.[Au+] [Auranofin],Synergy (considered synergistic if the IC50 value of the second compound decreased by 2-fold or more when EPZ-5676 was added as compared to the DMSO control)
4,Cc1cc(Cl)cc(OCCn2cc(F)cn2)c1-c1nc(N)nc2c1CN(C(=O)NCC(C)(F)F)C2 [BEP800],Synergy (considered synergistic if the IC50 value of the second compound decreased by 2-fold or more when EPZ-5676 was added as compared to the DMSO control)
5,COc1cc2nc(N3CCCN(C)CC3)nc(NC3CCN(Cc4ccccc4)CC3)c2cc1OC [BIX01294],Synergy (considered synergistic if the IC50 value of the second compound decreased by 2-fold or more when EPZ-5676 was added as compared to the DMSO control)
6,Cn1ncnc1[C@H]1c2n[nH]c(=O)c3cc(F)cc(c23)N[C@@H]1c1ccc(F)cc1 [BMN 673],Synergy (considered synergistic if the IC50 value of the second compound decreased by 2-fold or more when EPZ-5676 was added as compared to the DMSO control)
7,Cc1ccc2nc(NCCN)c3ncc(C)n3c2c1 [BMS 345541],Synergy (considered synergistic if the IC50 value of the second compound decreased by 2-fold or more when EPZ-5676 was added as compared to the DMSO control)
8,C[C@@]1(C(=O)Nc2ccc(F)nc2)CCCN1c1nc(Nc2cc(C3CC3)n[nH]2)c2cccn2n1 [BMS-754807],Synergy (considered synergistic if the IC50 value of the second compound decreased by 2-fold or more when EPZ-5676 was added as compared to the DMSO control)
9,CCS(=O)(=O)N1CC(CC#N)(n2cc(-c3ncnc4[nH]ccc34)cn2)C1 [Baricitinib],Synergy (considered synergistic if the IC50 value of the second compound decreased by 2-fold or more when EPZ-5676 was added as compared to the DMSO control)
10,CC[C@H](Nc1ncnc2[nH]cnc12)c1nc2cccc(F)c2c(=O)n1-c1ccccc1 [CAL-101],Synergy (considered synergistic if the IC50 value of the second compound decreased by 2-fold or more when EPZ-5676 was added as compared to the DMSO control)
11,N.N.[Cl][Pt][Cl] [Cisplatin],Synergy (considered synergistic if the IC50 value of the second compound decreased by 2-fold or more when EPZ-5676 was added as compared to the DMSO control)
12,CC(C)(C)c1nc(-c2cccc(NS(=O)(=O)c3c(F)cccc3F)c2F)c(-c2ccnc(N)n2)s1 [Dabrafenib],Synergy (considered synergistic if the IC50 value of the second compound decreased by 2-fold or more when EPZ-5676 was added as compared to the DMSO control)
13,COc1cc([C@@H]2c3cc4c(cc3[C@@H](O[C@@H]3O[C@@H]5CO[C@@H](C)O[C@H]5[C@H](O)[C@H]3O)[C@H]3COC(=O)[C@H]23)OCO4)cc(OC)c1O [Etoposide],Synergy (considered synergistic if the IC50 value of the second compound decreased by 2-fold or more when EPZ-5676 was added as compared to the DMSO control)
14,CO[C@H]1C[C@@H]2CC[C@@H](C)[C@@](O)(O2)C(=O)C(=O)N2CCCC[C@H]2C(=O)O[C@H]([C@H](C)C[C@@H]2CC[C@@H](OCCO)[C@H](OC)C2)CC(=O)[C@H](C)/C=C(\C)[C@@H](O)[C@@H](OC)C(=O)[C@H](C)C[C@H](C)/C=C/C=C/C=C/1C [Everolimus],Synergy (considered synergistic if the IC50 value of the second compound decreased by 2-fold or more when EPZ-5676 was added as compared to the DMSO control)
15,COc1cc(Nc2ncc(F)c(Nc3ccc4c(n3)N(COP(=O)(O)O)C(=O)C(C)(C)O4)n2)cc(OC)c1OC [Fostamatinib disodium],Synergy (considered synergistic if the IC50 value of the second compound decreased by 2-fold or more when EPZ-5676 was added as compared to the DMSO control)
16,Cc1cccc(CC(=O)N2CCc3c2ccc(-c2cn(C)c4ncnc(N)c24)c3F)n1 [GSK2656157],Synergy (considered synergistic if the IC50 value of the second compound decreased by 2-fold or more when EPZ-5676 was added as compared to the DMSO control)
17,c1ccc([C@@H]2C[C@H]2NC2CCNCC2)cc1 [GSK-LSD1],Synergy (considered synergistic if the IC50 value of the second compound decreased by 2-fold or more when EPZ-5676 was added as compared to the DMSO control)

row,SMILES,MOLM-13 (summary of combination study: EPZ-5676 + 2nd compound)
1,Cn1c2ccccc2c2c3c(c4c5ccccc5n(CCC#N)c4c21)CNC3=O [Go 6976],Synergy (considered synergistic if the IC50 value of the second compound decreased by 2-fold or more when EPZ-5676 was added as compared to the DMSO control)
2,CCc1c2c(nc3ccc(OC(=O)N4CCC(N5CCCCC5)CC4)cc13)-c1cc3c(c(=O)n1C2)COC(=O)[C@]3(O)CC [Irinotecan Hydrochloride],Synergy (considered synergistic if the IC50 value of the second compound decreased by 2-fold or more when EPZ-5676 was added as compared to the DMSO control)
3,c1ccc2c(CCNc3ccc(Nc4ccncc4)cc3)c[nH]c2c1 [JNJ 26854165],Synergy (considered synergistic if the IC50 value of the second compound decreased by 2-fold or more when EPZ-5676 was added as compared to the DMSO control)
4,CC(=O)O/N=C1\C(=O)N(Cc2cc(Cl)ccc2Cl)c2ccc(Cl)cc21 [LDN 57444],Synergy (considered synergistic if the IC50 value of the second compound decreased by 2-fold or more when EPZ-5676 was added as compared to the DMSO control)
5,Cc1cnc(NC(=O)Nc2cc(Br)c(C)cc2OC[C@@H]2CNCCO2)cn1 [LY2603618],Synergy (considered synergistic if the IC50 value of the second compound decreased by 2-fold or more when EPZ-5676 was added as compared to the DMSO control)
6,CS(=O)(=O)CCNCc1ccc(-c2ccc3ncnc(Nc4ccc(OCc5cccc(F)c5)c(Cl)c4)c3c2)o1 [Lapatinib],Synergy (considered synergistic if the IC50 value of the second compound decreased by 2-fold or more when EPZ-5676 was added as compared to the DMSO control)
7,Cc1cc(/N=N/c2ccc(S(=O)(=O)Nc3ccccn3)cc2)c(N)cc1O [MS 436],Synergy (considered synergistic if the IC50 value of the second compound decreased by 2-fold or more when EPZ-5676 was added as compared to the DMSO control)
8,Nc1ccccc1NC(=O)c1ccc(CNC(=O)OCc2cccnc2)cc1 [MS-275],Synergy (considered synergistic if the IC50 value of the second compound decreased by 2-fold or more when EPZ-5676 was added as compared to the DMSO control)
9,CC1=CC(=O)c2ccccc2C1=O [Menadione],Synergy (considered synergistic if the IC50 value of the second compound decreased by 2-fold or more when EPZ-5676 was added as compared to the DMSO control)
10,O=c1cc(N2CCOCC2)oc2c(-c3cccc4c3sc3ccccc34)cccc12 [NU 7441],Synergy (considered synergistic if the IC50 value of the second compound decreased by 2-fold or more when EPZ-5676 was added as compared to the DMSO control)
11,COc1ccc(C2=N[C@@H](c3ccc(Cl)cc3)[C@@H](c3ccc(Cl)cc3)N2C(=O)N2CCNC(=O)C2)c(OC(C)C)c1 [Nutlin-3],Synergy (considered synergistic if the IC50 value of the second compound decreased by 2-fold or more when EPZ-5676 was added as compared to the DMSO control)
12,O=C(c1cc(Cc2n[nH]c(=O)c3ccccc23)ccc1F)N1CCN(C(=O)C2CC2)CC1 [Olaparib],Synergy (considered synergistic if the IC50 value of the second compound decreased by 2-fold or more when EPZ-5676 was added as compared to the DMSO control)
13,Nc1cccc2c1C(=O)N(C1CCC(=O)NC1=O)C2=O (stereo not shown) [Pomalidomide],Synergy (considered synergistic if the IC50 value of the second compound decreased by 2-fold or more when EPZ-5676 was added as compared to the DMSO control)
14,O=C(c1ccc(OCCN2CCCCC2)cc1)c1c(-c2ccc(O)cc2)sc2cc(O)ccc12 [Raloxifene Hydrochloride],Synergy (considered synergistic if the IC50 value of the second compound decreased by 2-fold or more when EPZ-5676 was added as compared to the DMSO control)
15,Cc1cccc(-c2[nH]c(C(C)(C)C)nc2-c2ccc3c(c2)OCO3)n1 [SB-505124],Synergy (considered synergistic if the IC50 value of the second compound decreased by 2-fold or more when EPZ-5676 was added as compared to the DMSO control)
16,O=C1c2ccccc2-c2nc3nonc3nc21 [SMER 3],Synergy (considered synergistic if the IC50 value of the second compound decreased by 2-fold or more when EPZ-5676 was added as compared to the DMSO control)
17,Cc1coc2c1C(=O)C(=O)c1c-2ccc2c1CCCC2(C)C [TANSHINONE IIA],Synergy (considered synergistic if the IC50 value of the second compound decreased by 2-fold or more when EPZ-5676 was added as compared to the DMSO control)
